Values joined by “and” are separate entries in the source; they are usually repeats but may differ in a detail not shown here. Equal values may be shown once. “Also recorded” adds a separate entry of the source.
Columns and labels:
[1] = system: BSH activity in conventional mouse feces; test: Screen of inhibitors in conventional mouse feces; type: biochemical; conditions: 20 μM inhibitor, 30 min, then GCDCA-d4 100 μM, 18 hours
Experimental: Screen of Inhibitors in Conventional Mouse Feces. […] The tubes were then frozen in dry ice for 5 mins and upon thawing were diluted with an equal volume of methanol. […] The supernatant was removed into a clean eppendorf tube and centrifuged again. […] The concentration of product detected from these assays was reported directly.

B. theta BSH [2] = biological target: T1, B. theta BSH (Bacteroides thetaiotaomicron, UniProt Q8A600); test: Inhibitor screen using rBSH, B. theta BSH (UPLC-MS % deconjugation); conditions: 100 μM inhibitor; for inhibition of B. theta BSH (in words): 30 min preincubation, monitored over 21 hours; for % deconjugation of TDCA / % deconjugation of TUDCA / % deconjugation of TβMCA / % deconjugation of TCA: 200 nM rBSH, replicates 1-3
B. longum BSH [3] = biological target: T2, B. longum BSH (Bifidobacterium longum, UniProt Q9KK62); test: Inhibitor screen using rBSH, B. longum BSH (UPLC-MS % deconjugation); type: biochemical, Bifidobacterium longum SBT2928; design: His6 (C); made in house; host or cells: Escherichia coli (as for the B. theta enzyme); conditions: 100 μM inhibitor; for % deconjugation of TCA / % deconjugation of TDCA / % deconjugation of TUDCA / % deconjugation of TβMCA: 200 nM rBSH, bile acid pool, replicates 1-3
T2 sequence (Q9KK62 1-317): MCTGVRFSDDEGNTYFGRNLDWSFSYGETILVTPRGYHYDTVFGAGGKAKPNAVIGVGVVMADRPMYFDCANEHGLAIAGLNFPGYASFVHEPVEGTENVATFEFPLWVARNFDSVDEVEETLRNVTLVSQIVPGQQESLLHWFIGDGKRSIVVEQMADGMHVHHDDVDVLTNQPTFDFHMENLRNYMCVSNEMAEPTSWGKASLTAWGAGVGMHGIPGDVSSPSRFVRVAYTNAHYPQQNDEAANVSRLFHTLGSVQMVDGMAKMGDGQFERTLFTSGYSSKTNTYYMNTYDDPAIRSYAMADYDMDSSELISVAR
Experimental: B. longum rBSH. Recombinant BSH from B. longum SBT2928 was expressed and purified as above, except 0.25 mM IPTG was used for protein expression and 1 mM TCEP for protein purification.
Inhibitor Screen Using rBSHs.

B. theta cultures = test: BSH inhibition in growing B. theta cultures, single substrate (GUDCA or TUDCA); type: cell-based, Bacteroides thetaiotaomicron; conditions: 10 μM inhibitor; for BSH inhibition in B. theta cultures compared to 7 (in words): 100 μM TUDCA; for deconjugation of GUDCA in growing B. theta cultures (in words): 100 μM GUDCA
[4] = system: three Gram negative and three Gram positive strains of human gut bacteria; test: BSH inhibition in growing cultures of six gut bacterial strains (overall statements); type: cell-based; conditions: 100 μM inhibitor, 100 μM conjugated bile acid mixture
B. theta BSH [5] = biological target: T1, B. theta BSH; test: Enzyme kinetics (ninhydrin assay), B. theta BSH; type: biochemical; conditions: for deconjugation of substrate by purified B. theta BSH (in words): ninhydrin-based assay
Experimental: (§1) Enzyme Kinetics. […] This solution was preheated to 37° C. in a water bath. 20 μL of a conjugated bile acid in DMSO at appropriate concentration was preheated to 37° C. in a water bath and added to the above solution. […] The cloudy solution was centrifuged at 4,200 g for 15 mins. 10 μL of the supernatant was added to 190 μL of ninhydrin mix (15 mL of 1% [wt/vol] ninhydrin in 0.5 M sodium citrate at pH 5.5, 36 mL glycerol and 6 mL 0.5 M sodium citrate buffer at pH 5.5) and the mixture was heated to 100° C. in a BioRad thermocycler for 18 mins. The obtained solution was cooled at 4° C. for 20 mins and absorbance was measured at 570 nm using a spectrophotometer (Molecular Devices).

B. longum BSH [6] = biological target: T2, B. longum BSH; test: Enzyme kinetics (ninhydrin assay), B. longum BSH; conditions: substrate of B. longum BSH
Experimental: as §1

[7] = FIG. 2a, 2 hours, bile acid pool
[8] = FIG. 2a, 2 hours, pool of four tauro conjugated bile acids 25 μM each
[9] = FIG. 2a, 21 hours, bile acid pool
[10] = Supplementary FIG. 3a, 5 hours, bile acid pool
[11] = Table 1, substrate of B. Theta BSH, PBS pH 7.5, 37° C.
[12] = Table 3, substrate of B. theta BSH, mean ± SEM, n = 3

C[C@H](CCN=C=S)[C@H]1CC[C@H]2[C@@H]3[C@H](O)C[C@@H]4C[C@H](O)CC[C@]4(C)[C@H]3CC[C@]12C [Compound 1]
BSH activity in resuspended conventional mouse feces (in words) [1]: moderate BSH inhibition; also recorded: decreased deconjugation | inhibition of B. theta BSH (in words) (B. theta BSH [2]): modest inhibition | % deconjugation of TDCA (B. theta BSH [2]; [7]): 51.40% and 46.10% and 43.43% | % deconjugation of TUDCA (B. theta BSH [2]; [7]): 37.96% and 35.92% and 33.34% | % deconjugation of TβMCA (B. theta BSH [2]; [7]): 3.72% and 3.29% and 3.28% | % deconjugation of TCA (B. theta BSH [2]; [8]): 0.12% and 0.17% and 0.29% | % deconjugation of TCA (B. theta BSH [2]; [9]): 0.12% and 0.17% and 0.15% | % deconjugation of TDCA (B. theta BSH [2]; [9]): 45.18% and 51.87% and 45.19% | % deconjugation of TUDCA (B. theta BSH [2]; [9]): 34.40% and 41.24% and 37.45% | % deconjugation of TβMCA (B. theta BSH [2]; [9]): 3.18% and 4.28% and 3.11% | % deconjugation of TCA (B. theta BSH [2]; [10]): 0.25% and 0.00% and 0.21% | % deconjugation of TDCA (B. theta BSH [2]; [10]): 52.56% and 51.54% and 45.63% | % deconjugation of TUDCA (B. theta BSH [2]; [10]): 38.73% and 40.02% and 35.99% | % deconjugation of TβMCA (B. theta BSH [2]; [10]): 4.42% and 4.47% and 3.37% | inhibition of B. longum BSH (in words) (B. longum BSH [3]; 2 h, 5 h and 21 h timepoints): modest inhibition | % deconjugation of TCA (B. longum BSH [3]; FIG. 2b, 2 hours): 0.10% and 0.89% and 0.43% | % deconjugation of TDCA (B. longum BSH [3]; FIG. 2b, 2 hours): 7.25% and 4.34% and 2.20% | % deconjugation of TUDCA (B. longum BSH [3]; FIG. 2b, 2 hours): 2.12% and 1.09% and 0.61% | % deconjugation of TβMCA (B. longum BSH [3]; FIG. 2b, 2 hours): 2.49% and 0.05% and 0.03% | % deconjugation of TCA (B. longum BSH [3]; FIG. 2b, 21 hours): 9.02% and 3.00% and 8.03% | % deconjugation of TDCA (B. longum BSH [3]; FIG. 2b, 21 hours): 23.33% and 14.91% and 20.42% | % deconjugation of TUDCA (B. longum BSH [3]; FIG. 2b, 21 hours): 4.57% and 2.48% and 3.66% | % deconjugation of TβMCA (B. longum BSH [3]; FIG. 2b, 21 hours): 0.21% and 0.13% and 0.28% | % deconjugation of TCA (B. longum BSH [3]; Supplementary FIG. 3b, 5 hours): 4.13% and 4.57% and 4.31% | % deconjugation of TDCA (B. longum BSH [3]; Supplementary FIG. 3b, 5 hours): 9.85% and 11.26% and 11.96% | % deconjugation of TUDCA (B. longum BSH [3]; Supplementary FIG. 3b, 5 hours): 2.44% and 2.49% and 2.64% | % deconjugation of TβMCA (B. longum BSH [3]; Supplementary FIG. 3b, 5 hours): 0.10% and 0.11% (2×)

C#CC(=O)CC[C@@H](C)[C@H]1CC[C@H]2[C@@H]3[C@H](O)C[C@@H]4C[C@H](O)CC[C@]4(C)[C@H]3CC[C@]12C [Compound 4]
% deconjugation of TDCA (B. theta BSH [2]; [7]): 97.26% and 96.13% and 94.56% | % deconjugation of TUDCA (B. theta BSH [2]; [7]): 94.07% and 91.62% and 89.81% | % deconjugation of TβMCA (B. theta BSH [2]; [7]): 32.07% and 29.34% and 22.69% | % deconjugation of TCA (B. theta BSH [2]; [8]): 0.47% and 1.15% and 0.30% | % deconjugation of TCA (B. theta BSH [2]; [9]): 1.50% and 0.85% and 1.80% | % deconjugation of TDCA (B. theta BSH [2]; [9]): 95.87% and 95.61% and 96.21% | % deconjugation of TUDCA (B. theta BSH [2]; [9]): 98.54% and 97.31% and 97.80% | % deconjugation of TβMCA (B. theta BSH [2]; [9]): 47.65% and 32.41% and 43.47% | % deconjugation of TCA (B. theta BSH [2]; [10]): 0.40% and 1.92% and 1.29% | % deconjugation of TDCA (B. theta BSH [2]; [10]): 99.59% and 99.50% and 99.01% | % deconjugation of TUDCA (B. theta BSH [2]; [10]): 98.43% and 98.54% and 97.17% | % deconjugation of TβMCA (B. theta BSH [2]; [10]): 26.17% and 45.65% and 37.57%

CC(=O)CC[C@@H](C)[C@H]1CC[C@H]2[C@@H]3[C@H](O)C[C@@H]4C[C@H](O)CC[C@]4(C)[C@H]3CC[C@]12C [Compound 8]
BSH inhibition in B. theta cultures compared to 7 (in words) (B. theta cultures): less potent inhibitors of B. theta BSH than compound 7; also recorded: did not display BSH inhibition against either recombinant protein or B. theta cultures | inhibition of B. theta BSH (in words) (B. theta BSH [2]): did not display BSH inhibition; also recorded: did not display BSH inhibition against either recombinant protein or B. theta cultures

C[C@H](CCC(=O)CF)[C@H]1CC[C@H]2[C@@H]3[C@H](O)C[C@@H]4C[C@H](O)CC[C@]4(C)[C@H]3C[C@H](O)[C@]12C [Compound 9]
deconjugation of GUDCA in growing B. theta cultures (in words) (B. theta cultures): significantly diminished activity to inhibit B. theta BSH | deconjugation of GUDCA in growing B. theta cultures (in words) (B. theta cultures; listed as compound 9): significant deconjugation was observed | BSH inhibition in B. theta cultures compared to 7 (in words) (B. theta cultures): less potent inhibitors of B. theta BSH than compound 7; also recorded: significantly reduced ability to inhibit BSH deconjugation

Cc1cc2nc3c(=O)[nH]c(=O)nc-3n(C[C@H](O)[C@H](O)[C@H](O)CO)c2cc1C [Riboflavin, riboflavin, reference compound]
deconjugation / BSH inhibition in cultures of the six bacterial strains (in words) [4]: neither riboflavin nor CAPE displayed significant inhibitory activity against any of the Gram negative strains | inhibition of B. theta BSH (in words) (B. theta BSH [2]): did not display any inhibitory activity

C[C@H](CCC(=O)NCCS(=O)(=O)O)[C@H]1CC[C@H]2[C@@H]3[C@H](O)C[C@@H]4C[C@H](O)CC[C@]4(C)[C@H]3C[C@H](O)[C@]12C [TCA, taurocholic acid]
deconjugation of substrate by purified B. theta BSH (in words) (B. theta BSH [5]): did not deconjugate | Kcat (B. longum BSH [6]; Table 1, PBS pH 7.5, 37° C.): 1.82 s⁻¹

C[C@H](CCC(=O)NCCS(=O)(=O)O)[C@H]1CC[C@H]2[C@@H]3[C@H](O)C[C@@H]4C[C@H](O)CC[C@]4(C)[C@H]3CC[C@]12C [TCDCA, taurochenodeoxycholic acid]
Kcat (B. theta BSH [5]; [11]): 1.69 s⁻¹ | Km (B. theta BSH [5]; [11]): 2.86 mM | Kcat (B. theta BSH [5]; [12]): 0.0717 ± 0.01 s⁻¹ | Km (B. theta BSH [5]; [12]): 2.9 ± 1.8 mM | Kcat (B. longum BSH [6]; Table 1, PBS pH 7.5, 37° C.): 1.807 s⁻¹ | Km (B. longum BSH [6]; Table 1, PBS pH 7.5, 37° C.): 7.75 mM | Kcat (B. longum BSH [6]; Table 3, mean ± SEM, n = 3): 0.0767 ± 0.01 s⁻¹ | Km (B. longum BSH [6]; Table 3, mean ± SEM, n = 3): 7 ± 2.3 mM

C[C@H](CCC(=O)NCCS(=O)(=O)O)[C@H]1CC[C@H]2[C@@H]3CC[C@@H]4C[C@H](O)CC[C@]4(C)[C@H]3C[C@H](O)[C@]12C [TDCA, taurodeoxycholic acid]
Kcat (B. theta BSH [5]; [11]): 1.682 s⁻¹ | Km (B. theta BSH [5]; [11]): 3.35 mM | Kcat (B. theta BSH [5]; [12]): 0.215 ± 0.01 s⁻¹ | Km (B. theta BSH [5]; [12]): 3.4 ± 0.6 mM | deconjugation of substrate by purified B. theta BSH (in words) (B. theta BSH [5]): preference for TDCA deconjugation | Kcat (B. longum BSH [6]; Table 1, PBS pH 7.5, 37° C.): 1.695 s⁻¹ | Kcat (B. longum BSH [6]; Table 3, mean ± SEM, n = 3): 0.0583 ± 0.0017 s⁻¹

C[C@H](CCC(=O)NCCS(=O)(=O)O)[C@H]1CC[C@H]2[C@@H]3[C@@H](O)C[C@@H]4C[C@H](O)CC[C@]4(C)[C@H]3CC[C@]12C [TUDCA, tauroursodeoxycholic acid]
Kcat (B. theta BSH [5]; [11]): 1.807 s⁻¹ | Km (B. theta BSH [5]; [11]): 8.23 mM | Kcat (B. theta BSH [5]; [12]): 0.255 ± 0.013 s⁻¹ | Km (B. theta BSH [5]; [12]): 8.2 ± 1 mM | deconjugation of substrate by purified B. theta BSH (in words) (B. theta BSH [5]): displayed a preference | Kcat (B. longum BSH [6]; Table 1, PBS pH 7.5, 37° C.): 1.608 s⁻¹ | Kcat (B. longum BSH [6]; Table 3, mean ± SEM, n = 3): 0.015 ± 0.0033 s⁻¹

— US12577273B2, “Small molecule modulators of gut bacterial bile acid metabolism” (priority 2019, dated 2026)
